# Experimental data taken from ChEMBL document CHEMBL4118088, “C5-C6 Carbocyclic-Fused Iminothiadiazine Dioxides as BACE Inhibitors, Their Compositions, and Their Use” (ACS Med Chem Lett, 2017).
# Key:
# [1] = molecular target: Beta-secretase 1 (Homo sapiens, UniProt P56817); experiment: Binding affinity to human BACE1 catalytic domain using QSY7-APPswe-Eu as substrate preincubated for 30 mins followed by substrate addition measured after 1.5 hrs by HTRF assay
# [2] = molecular target: T1, Beta-secretase 2 (Homo sapiens, UniProt Q9Y5Z0); experiment: Binding affinity to human autoBACE2 using QSY7-APPswe-Eu as substrate preincubated for 30 mins followed by substrate addition measured after 90 mins by HTRF assay
# T1 sequence (Q9Y5Z0 whole entry): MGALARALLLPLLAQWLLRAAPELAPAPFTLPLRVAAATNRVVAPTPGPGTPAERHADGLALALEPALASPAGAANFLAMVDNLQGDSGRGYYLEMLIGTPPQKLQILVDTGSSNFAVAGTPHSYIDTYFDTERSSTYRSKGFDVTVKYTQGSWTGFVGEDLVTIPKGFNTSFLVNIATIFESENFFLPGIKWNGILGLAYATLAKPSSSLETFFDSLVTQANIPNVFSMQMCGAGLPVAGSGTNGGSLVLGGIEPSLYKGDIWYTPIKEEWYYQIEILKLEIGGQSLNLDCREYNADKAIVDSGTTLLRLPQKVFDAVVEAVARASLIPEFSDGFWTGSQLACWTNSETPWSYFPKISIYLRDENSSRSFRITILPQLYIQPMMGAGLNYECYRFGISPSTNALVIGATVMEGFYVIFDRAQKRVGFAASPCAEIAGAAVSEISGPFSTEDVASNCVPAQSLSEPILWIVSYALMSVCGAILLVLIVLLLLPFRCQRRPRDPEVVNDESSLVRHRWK
# Chain of Beta-secretase 1 (P56817 whole entry, the tested form may be a part): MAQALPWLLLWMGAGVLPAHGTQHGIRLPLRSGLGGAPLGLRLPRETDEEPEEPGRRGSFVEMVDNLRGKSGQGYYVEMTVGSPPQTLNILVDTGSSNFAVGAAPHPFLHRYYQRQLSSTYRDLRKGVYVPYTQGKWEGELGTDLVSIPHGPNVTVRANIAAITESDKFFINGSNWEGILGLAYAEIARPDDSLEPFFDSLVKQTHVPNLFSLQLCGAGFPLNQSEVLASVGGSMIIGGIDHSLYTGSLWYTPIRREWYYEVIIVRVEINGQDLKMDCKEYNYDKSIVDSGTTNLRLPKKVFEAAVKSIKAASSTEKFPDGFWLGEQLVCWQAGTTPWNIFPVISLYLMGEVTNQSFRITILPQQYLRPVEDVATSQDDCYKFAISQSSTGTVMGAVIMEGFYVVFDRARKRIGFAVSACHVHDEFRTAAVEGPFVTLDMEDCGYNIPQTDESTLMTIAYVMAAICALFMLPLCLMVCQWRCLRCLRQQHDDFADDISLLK
Ki [1] [nM],Ki [2] [nM],SMILES
36,9,COc1cnc2c(C(=O)Nc3ccc(F)c([C@]45CCC[C@H]4S(=O)(=O)N(C)C(=N)N5)c3)nccc2n1
4,0.5,CN1C(=N)N[C@@]2(c3cc(NC(=O)c4nccc5cc(Br)cnc45)ccc3F)CCC[C@H]2S1(=O)=O
31,10,COc1cnc2c(C(=O)Nc3ccc(F)c([C@]45CCC[C@H]4S(=O)(=O)N(C)C(=N)N5)c3)nccc2c1
206,198,COc1cnc2c(C(=O)Nc3ccc(F)c([C@]45CCC[C@H]4S(=O)(=O)N(C)C(=N)N5)c3)ccnc2c1
